The values below are quoted from earlier work in US7060435B1, “Genotyping cytochrome expression” (Janssen Pharmaceutica, priority 1998, dated 2006).

The target in the data set is CYP3A4 and CYP3A5 (Homo sapiens, UniProt P08684). The conditions noted are these: samples containing only CYP3A4.
CYP3A4 and CYP3A5, sequence (P08684 2-503): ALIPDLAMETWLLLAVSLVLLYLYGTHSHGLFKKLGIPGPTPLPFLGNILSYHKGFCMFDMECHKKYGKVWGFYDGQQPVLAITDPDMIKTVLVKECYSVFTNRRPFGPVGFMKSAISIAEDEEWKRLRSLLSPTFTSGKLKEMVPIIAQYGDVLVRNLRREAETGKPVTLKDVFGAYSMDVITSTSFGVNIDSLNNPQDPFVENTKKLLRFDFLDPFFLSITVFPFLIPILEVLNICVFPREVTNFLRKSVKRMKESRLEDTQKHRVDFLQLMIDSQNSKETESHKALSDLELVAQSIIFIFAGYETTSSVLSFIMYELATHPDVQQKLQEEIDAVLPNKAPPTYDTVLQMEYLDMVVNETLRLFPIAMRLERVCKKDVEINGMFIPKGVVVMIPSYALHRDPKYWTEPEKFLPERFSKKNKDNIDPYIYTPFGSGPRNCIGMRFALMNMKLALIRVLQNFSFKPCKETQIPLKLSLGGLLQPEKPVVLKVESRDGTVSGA

With `Cc1ncc2n1-c1ccc(Cl)cc1C(c1ccccc1F)=NC2` [midazolam], the 1-OHM/4-OHM ratio is on record as less than 4.
